From patent US6372209B1, “Vaginal lactobacillus medicant” (Gyne Logix, Inc., priority 1997, dated 2002)

Assays:
[1] = Stability of viability: room temperature and refrigerated storage (plate count, MRS agar); assay type: physicochemical
Procedure: (1.5) Stability of viability: Samples of each evaluated strain were retained for shelf-life studies at room temperature and refrigerated storage. At selected time intervals, samples were tested for the number of colony-forming-units using the Plate Count method with MRS agar.
Strain CTV-05 was tested in a gelatin capsule suppository during storage at 55° C., 45° C., 35° C. and at room and refrigeration temperatures. […] Between the fourth and ninth weeks counts dropped to 9.8×10^7 per suppository and have remained at 10^7 for 25 months. […]

[2] = test system: H2O2 production; assay: Production of H2O2 (TMB medium or EM strips); details: gelatin capsule suppository, storage period up to 25 months
Procedure: (1.4) Production of H2O2: Strains were inoculated onto tetramethylbenzidine medium (TMB) and incubated at 37° C. for 2-3 days under anaerobic conditions. H2O2-producing colonies produce a blue pigment upon exposure to ambient air. Alternatively, H2O2-detecting strips from EM Science were used. The reagent impregnated portion of the strip was applied to a Lactobacillus colony and the intensity of the resulting blue color served as a quantitative measure of H2O2 concentration.

[3] = Cell to preservation matrix ratio: viability counts pre- and post-dry; assay type: physicochemical; details: 30 microliter aliquots
Procedure: Experiments were conducted to determine the preservative capacity of the suspending medium by addition of different amounts of cells of strain CTV-05 per volume of medium. The Lactobacilli were grown anaerobically on 2 inch squares on MRS agar plates. A 2-inch square of agar is the equivalent of 10 ml of broth. The anticipated yield per plate was 2×10^9 CFUs. Inoculated matrix was preserved in aliquots of 30 microliters.

[4] = Purity and genetic fingerprint (Rep PCR) of suppository lots
Procedure: (1.1) Purity of the strain: The purity of the suppository strain (i.e., lack of presence of contaminating organisms in a culture) was confirmed by specifically distinguishing the suppository strain from other strains using DNA fingerprinting techniques. DNA fingerprinting was performed by Repetitive Sequence Polymerase Chain Reaction (Rep PCR). In order to determine whether the Rep PCR method could distinguish the suppository strain (CTV-05) from endogenous L. crispatus, 40 strains of L. crispatus were recovered from the vagina of women of child-bearing age and compared to CTV-05. L. crispatus species identity was determined using whole chromosomal DNA homology to control strain L. crispatus ATCC 33197. […] The suppository strain (CTV-05) was distinguished from the others by four bands in the 2500-1500 base pair region. In this region, the CTV-05 fingerprint consists of intense bands at 2500 and 1500 and less amplified bands at 2000 and 1736 base pairs (data not shown).
Six different lots of L. crispatus CTV-05 prepared over a 2 year period were evaluated for purity and stability of the genetic fingerprint. […] Further, there has been no lot-to-lot variability in the “fingerprint” of the DNA of the suppository strain (data not shown).

[5] = test system: normal, healthy women; assay: Open study: vaginal colonization of healthy women by suppository; assay type: in vivo, human
From the text: In this open study, a Lactobacillus suppository containing approximately 10^9 viable, H2O2-producing Lactobacillus crispatus CTV-05 was used by 9 women twice daily for three days. All 9 women were free of genital infection at enrollment, and 8 of the 9 women had endogenous Lactobacilli at enrollment.
Since many women are colonized vaginally and rectally by Lactobacilli, the technique, Repetitive Sequence Polymerase Chain Reaction (Rep PCR), was used to “fingerprint” the suppository strain of L. crispatus and thereby distinguish the suppository strain from endogenous strains of Lactobacilli.

[6] = Accelerated shelf-life of the air-dried suppository at 35, 45 and 55° C.; assay type: physicochemical; details: for loss of viability: over about 2.3 days
Procedure: Strain CTV-05 was tested in a gelatin capsule suppository during storage at 55° C., 45° C., 35° C. and at room and refrigeration temperatures. […] Between the fourth and ninth weeks counts dropped to 9.8×10^7 per suppository and have remained at 10^7 for 25 months.
At 35° C., the product lost less than 1 log of viability over about 2.3 days. At 45° C., the product lost about 2 logs of viability over about 2.3 days. At 55° C., the product lost viability rapidly within 0.5 days.

[7] = 4 plates/5 ml matrix, 24 hr. Growth Period
[8] = 4 plates/5 ml matrix, 48 hr. Growth Period
[9] = 6 plates/5 ml matrix, 24 hr. Growth Period
[10] = 6 plates/5 ml matrix, 48 hr. Growth Period
[11] = 8 plates/5 ml matrix, 24 hr. Growth Period
[12] = 8 plates/5 ml matrix, 48 hr. Growth Period
[13] = 10 plates/5 ml matrix, 24 hr. Growth Period
[14] = 10 plates/5 ml matrix, 48 hr. Growth Period

Lactobacillus crispatus CTV-05
CFUs per Suppository ([1]; Refrigerated (2-8° C.), 1 month): 5.20E+08 CFUs per Suppository | CFUs per Suppository ([1]; Refrigerated (2-8° C.), 2 months): 2.20E+08 CFUs per Suppository | CFUs per Suppository ([1]; Refrigerated (2-8° C.), 3 months): 2.30E+08 CFUs per Suppository | CFUs per Suppository ([1]; Refrigerated (2-8° C.), 5 months): 2.80E+08 CFUs per Suppository | CFUs per Suppository ([1]; Refrigerated (2-8° C.), 6 months): 1.70E+08 CFUs per Suppository | CFUs per Suppository ([1]; Refrigerated (2-8° C.), 7 months): 2.60E+08 CFUs per Suppository | CFUs per Suppository ([1]; Refrigerated (2-8° C.), 9 months): 3.10E+08 CFUs per Suppository | CFUs per Suppository ([1]; Refrigerated (2-8° C.), 11 months): 2.50E+08 CFUs per Suppository | CFUs per Suppository ([1]; Refrigerated (2-8° C.), 15 months): 9.20E+07 CFUs per Suppository | CFUs per Suppository ([1]; Refrigerated (2-8° C.), 18 months): 1.50E+07 CFUs per Suppository | CFUs per Suppository ([1]; Refrigerated (2-8° C.), 25 months): 5.00E+08 CFUs per Suppository | CFUs per Suppository ([1]; Room Temperature (25° C. ± 5° C.), 1 month): 1.30E+08 CFUs per Suppository | CFUs per Suppository ([1]; Room Temperature (25° C. ± 5° C.), 1 week): 3.80E+08 CFUs per Suppository | CFUs per Suppository ([1]; Room Temperature (25° C. ± 5° C.), 2 months): 9.80E+07 CFUs per Suppository | CFUs per Suppository ([1]; Room Temperature (25° C. ± 5° C.), 2 weeks): 3.20E+08 CFUs per Suppository | CFUs per Suppository ([1]; Room Temperature (25° C. ± 5° C.), 3 months): 1.83E+07 CFUs per Suppository | CFUs per Suppository ([1]; Room Temperature (25° C. ± 5° C.), 3 weeks): 3.05E+08 CFUs per Suppository | CFUs per Suppository ([1]; Room Temperature (25° C. ± 5° C.), 4 months): 3.25E+07 CFUs per Suppository | CFUs per Suppository ([1]; Room Temperature (25° C. ± 5° C.), 5 months): 3.80E+07 CFUs per Suppository | CFUs per Suppository ([1]; Room Temperature (25° C. ± 5° C.), 6 months): 1.70E+07 CFUs per Suppository | CFUs per Suppository ([1]; Room Temperature (25° C. ± 5° C.), 7 months): 1.60E+07 CFUs per Suppository | CFUs per Suppository ([1]; Room Temperature (25° C. ± 5° C.), 9 months): 4.70E+07 CFUs per Suppository | CFUs per Suppository ([1]; Room Temperature (25° C. ± 5° C.), 11 months): 2.80E+07 CFUs per Suppository | CFUs per Suppository ([1]; Room Temperature (25° C. ± 5° C.), 15 months): 2.20E+06 CFUs per Suppository | CFUs per Suppository ([1]; Room Temperature (25° C. ± 5° C.), 18 months): 4.70E+06 CFUs per Suppository | CFUs per Suppository ([1]; Room Temperature (25° C. ± 5° C.), 25 months): 1.60E+07 CFUs per Suppository | colony counts, stable level ([1]; refrigerated product, for 5 months): 10^8 per suppository | colony counts after drop ([1]; room temperature, between the fourth and ninth weeks): 9.8×10^7 per suppository | colony counts, stable level ([1]; room temperature, for 4 weeks): 10^8 per suppository | colony counts, level maintained ([1]; room temperature, for 25 months): 10^7 | CFU value at which product remained stable after drop from 10^8 at 2 months ([1]; stored at room temperature (25° C. +5° C.), for 25 months): 10^7 CFU | CFU value at which product was stable ([1]; stored refrigerated (2-8° C.), for 25 months): 10^8 CFU | H2O2 production during storage [2]: remained stable | Actual Yields, Post-dry [3, 7]: 1.1 × 10^7 CFUs | Actual Yields, Pre-dry [3, 7]: 7.9 × 10^7 CFUs | Actual Yields, Post-dry [3, 8]: 6.1 × 10^8 CFUs | Actual Yields, Pre-dry [3, 8]: 6.0 × 10^8 CFUs | Actual Yields, Post-dry [3, 9]: 2.1 × 10^7 CFUs | Actual Yields, Pre-dry [3, 9]: 1.9 × 10^8 CFUs | Actual Yields, Post-dry [3, 10]: 3.0 × 10^8 CFUs | Actual Yields, Pre-dry [3, 10]: 7.8 × 10^8 CFUs | Actual Yields, Post-dry [3, 11]: 3.6 × 10^7 CFUs | Actual Yields, Pre-dry [3, 11]: 6.9 × 10^7 CFUs | Actual Yields, Post-dry [3, 12]: 4.3 × 10^8 CFUs | Actual Yields, Pre-dry [3, 12]: 9.8 × 10^8 CFUs | Actual Yields, Post-dry [3, 13]: 4.0 × 10^7 CFUs | Actual Yields, Pre-dry [3, 13]: 6.7 × 10^7 CFUs | Actual Yields, Post-dry [3, 14]: 4.1 × 10^8 CFUs | Actual Yields, Pre-dry [3, 14]: 1.5 × 10^8 CFUs | contaminants in lots ([4]; six lots prepared over a 2 year period, enriched chopped meat broth, anaerobic): free of contaminants | genetic fingerprint (Rep PCR) between lots ([4]; small scale and scale-up lots): identical fingerprints | inflammation, microscopically (white blood cells on vaginal smear) ([5]; 9 women): None of the women had evidence of inflammation | side effects ([5]; 9 women): none complained of side effects | women colonized by the suppository strain ([5]; 9 women, approximately 10^9 viable cells twice daily for three days, 2-3 days after last capsule): all of the women were colonized | women remaining colonized ([5]; 9 women, at 1 month): 8 of 9 | vaginal colonization, Patient 103 ([5]; four weeks later): still colonized with CTV-05 | vaginal colonization, Patient 102 ([5]; one month visit): still colonized by L. crispatus CTV-05 | vaginal colonization, Patient 103 ([5]; one week after use twice daily for 3 days): colonized by CTV-05 as well as by another strain of Lactobacilli | vaginal colonization, Patient 102 ([5]; one week visit after use of the suppository): colonized by three strains of Lactobacilli, which included (1) the suppository strain | vaginal colonization, Patient 102 ([5]; one year after enrollment): colonized exclusively by the suppository strain | loss of viability ([6]; 35° C.): less than 1 log | loss of viability ([6]; 45° C.): about 2 logs | time within which viability was rapidly lost ([6]; 55° C.): ≤ 0.5 days
